Read-outs that look alike come from different tables or passages of the source.
Legend:
Molm-13 cells = test: Leukemia cell proliferation inhibition test (ATPlite), Molm-13; assay type: cell-based; settings: Homo sapiens, read-out: MOLM13 cell proliferation inhibition effect
Procedure, shortened: (§1)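 72 h proliferation, 37° C/5% CO2; 10,000 cells/well, RPMI/10% FBS; ATPlite luminescence (RLU); 0.1% DMSO taken as 0% inhibition; GI50 via sigmoid fit, n=2.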

[1] = molecular target: T1, human FLT3 protein (FLT3 (WT)) (Homo sapiens, UniProt P36888); test: FLT3 inhibition test (FLT3 enzyme inhibition, time-resolved fluorescence of substrate peptide phosphorylation); assay type: biochemical; settings: read-out: FLT3 (WT) enzyme inhibition activity
T1 construct: human FLT3 protein (intracellular region, 564 to 993 aa); GST; purchased Carna Biosciences; host or cells: baculovirus expression system
T1 sequence (P36888 564-993): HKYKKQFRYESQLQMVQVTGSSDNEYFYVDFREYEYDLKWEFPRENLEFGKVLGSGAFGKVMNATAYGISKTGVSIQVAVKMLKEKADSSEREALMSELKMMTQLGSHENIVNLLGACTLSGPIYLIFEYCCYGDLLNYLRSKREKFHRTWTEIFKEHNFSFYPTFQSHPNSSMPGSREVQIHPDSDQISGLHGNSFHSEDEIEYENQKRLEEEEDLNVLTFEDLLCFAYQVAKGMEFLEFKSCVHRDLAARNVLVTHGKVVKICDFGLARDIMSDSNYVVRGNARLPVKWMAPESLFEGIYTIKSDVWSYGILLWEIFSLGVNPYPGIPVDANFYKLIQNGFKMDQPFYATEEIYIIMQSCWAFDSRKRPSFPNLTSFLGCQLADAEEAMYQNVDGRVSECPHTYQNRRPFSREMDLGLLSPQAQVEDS
Procedure, shortened: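 Substrate peptide phosphorylation detected by time-resolved fluorescence after a 30 min kinase reaction at 25° C with 50 μM ATP (final). Beforehand, compound and FLT3 (WT, 1.2 μg) stood 15 min at 25° C in HEPES buffer pH 7.5 containing MgCl2, NaCl, BSA and DTT.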

MV4-11 cells = test: Leukemia cell proliferation inhibition test (ATPlite), MV4-11; assay type: cell-based; settings: Homo sapiens, read-out: MV4-11 cell proliferation inhibition effect
Procedure, shortened: as §1

[2] = MOLM-13, 72 h, Molm-13, 72 hours culture, ATPlite, GI50 per method
[3] = GST-fused human FLT3 (564 to 993 aa), ATP 50 μM
[4] = MV4-11, 72 h, MV4-11, 72 hours culture, ATPlite, GI50 per method

Row | Structure (SMILES) | IC50 (Molm-13 cells; [2]) | IC50 [1, 3] | IC50 (MV4-11 cells; [4]) | IC50 (Molm-13 cells; MOLM-13, MOLM13 cell) | IC50 ([1]; FLT3 (WT)) | IC50 (MV4-11 cells; MV4-11, MV4-11 cell)
1 | CCCNc1nc(Nc2ccc(C(N)=O)cc2)ncc1C(=O)Nc1cccc(NC(=O)[C@H](C)N(C)C(=O)/C=C/C(CC)N(C)C)c1 (stereo partly drawn) [Compound 4-15] | 100 to 1000 nM | < 10 nM | 10 to 100 nM | – | – | –
2 | CN(C)C/C=C/C(=O)N(C)CC(=O)NCCCC#Cc1cnc(Nc2ccc(F)nc2)nc1NCC(F)(F)F [Compound 10-36] | < 10 nM | < 10 nM | < 10 nM | – | – | –
3 | CCCNc1nc(Nc2ccc(C#N)cc2)ncc1C#C[C@H]1C[C@@H](NC(=O)[C@H](C)N(C)C(=O)/C=C/CN(C)C)C1 [Compound 13-9] | < 10 nM | < 10 nM | < 10 nM | – | – | –
4 | CCCNc1nc(Nc2ccc(C#N)cc2)ncc1C#CCNC(=O)CCNC(=O)/C=C/CN(C)C [Compound 7-90] | 100 to 1000 nM | < 10 nM | 100 to 1000 nM | – | – | –
5 | C[C@@H](C(=O)NCCCC#Cc1cnc(Nc2ccnc(F)c2)nc1N1CCCC1)N(C)C(=O)/C=C/CN(C)C [Compound 9-12, (S,E)-4-(Dimethylamino)-N-(1-((5-(2-((2-fluoropyridin-4-yl)amino)-4-(pyrrolidin-1-yl)pyrimidin-5-yl)-4-pentyn-1-yl)amino)-1-oxopropan-2-yl)-N-methyl-2-butenamide] | < 10 nM | < 10 nM | < 10 nM | – | – | –
6 | CNc1ncc(C#C[C@@H]2CCC[C@H](NC(=O)[C@H](C)N(C)C(=O)/C=C/CN(C)C)C2)c(NCc2ccccc2)n1 [Compound 21-39] | – | – | – | < 10 nM | < 10 nM | < 10 nM
7 | CCCNc1nc(Nc2ccnc(OC)c2)ncc1C#CCCCNC(=O)CN(C)C(=O)/C=C/CN(C)C [Compound 9-38, (E)-4-(Dimethylamino)-N-(2-((5-(2-((2-methoxypyridin-4-yl)amino)-4-(propylamino)pyrimidin-5-yl)-4-pentyn-1-yl)amino)-2-oxoethyl)-N-methyl-2-butenamide] | < 10 nM | < 10 nM | < 10 nM | – | – | –
8 | CCOc1nc(Nc2ccc(C#N)cc2)ncc1C#C[C@@H]1CCC[C@H](NC(=O)[C@H](C)N(C)C(=O)/C=C/CN(C)C)C1 [Compound 21-20] | < 10 nM | < 10 nM | < 10 nM | – | – | –
9 | CCCNc1nc(Nc2ccc(C(N)=O)cc2)ncc1C(=O)NCCCNC(=O)[C@H](C)NC(=O)/C=C/CN(C)C [Compound 5-4] | 100 to 1000 nM | < 10 nM | 100 to 1000 nM | – | – | –
10 | CCCNc1nc(Nc2cccc(F)c2)ncc1C#CCCCNC(=O)[C@@H]1CCCCN1C(=O)/C=C/CN(C)C [Compound 7-46] | 10 to 100 nM | < 10 nM | < 10 nM | – | – | –
11 | C[C@@H](C(=O)NCCCC#Cc1cnc(Nc2cccc(F)c2)nc1NC1=CC2C=CC=NC2C=C1)N(C)C(=O)/C=C/CN(C)C (stereo partly drawn) [Compound 7-7] | < 10 nM | < 10 nM | < 10 nM | – | – | –
12 | CNc1nc(Nc2cccc(F)c2)ncc1C#CCCCNC(=O)[C@@H]1C[C@H](OC)CN1C(=O)/C=C/CN(C)C [Compound 7-73, (2S,4S)-1-((E)-4-(Dimethylamino)-2-butenoyl)-N-(5-(2-((3-fluorophenyl)amino)-4-(methylamino)pyrimidin-5-yl)-4-pentyn-1-yl)-4-methoxypyrrolidine-2-carboxamide] | < 10 nM | < 10 nM | < 10 nM | – | – | –
13 | CCCNc1nc(Nc2ccc3c(c2)c(F)nn3C)ncc1C#CCCCNC(=O)[C@@H]1CCCN1C(=O)/C=C/CN(C)C [Compound 22-61] | – | – | – | < 10 nM | < 10 nM | < 10 nM
14 | CCCNc1nc(Nc2ccc(C#N)cc2)ncc1/C=C\CNC(=O)CCCNC(=O)/C=C/CN(C)C [Compound 7-96] | > 1000 nM | 10 to 100 nM | 100 to 1000 nM | – | – | –
15 | CCCNc1nc(Nc2ccc3c(OC)nn(COCC)c3c2)ncc1C#CCCCNC(=O)[C@H](C)N(C)C(=O)/C=C/CN(C)C [Compound 22-50] | – | – | – | < 10 nM | < 10 nM | 10 to 100 nM
16 | CCCNc1nc(Nc2ccc3c(c2)c(F)nn3C)ncc1C#CCCCNC(=O)[C@H](C)N(C)C(=O)/C=C/CN(C)C [Compound 22-60] | – | – | – | < 10 nM | < 10 nM | < 10 nM
17 | CCCNc1nc(Nc2ccc(C#N)cc2)ncc1C#CCCCNC(=O)[C@H](CO)N(C)C(=O)/C=C/CN(C)C [Compound 7-62, (S,E)-N-(1-((5-(2-((4-Cyanophenyl)amino)-4-(propylamino)pyrimidin-5-yl)-4-pentyn-1-yl)amino)-3-hydroxy-1-oxopropan-2-yl)-4-(dimethylamino)-N-methyl-2-butenamide] | < 10 nM | < 10 nM | < 10 nM | – | – | –
18 | C[C@@H](C(=O)NCCCC#Cc1cnc(Nc2ccc(C#N)cc2)nc1Nc1ccc(F)cc1)N(C)C(=O)/C=C/CN(C)C [Compound 10-2, (S,E)-N-(1--((5-(2-((4-cyanophenyl)amino)-4-((4-fluorophenyl)amino)pyrimidin-5-yl)-4-pentyn-1-yl)amino)-1-oxopropan-2-yl)-4-(dimethylamino)-N-methyl-2-butenamide] | < 10 nM | < 10 nM | < 10 nM | – | – | –
19 | C/C=C/C(=O)N(C)[C@@H](C)C(=O)Nc1cccc(NC(=O)c2cnc(Nc3ccc(C(N)=O)cc3)nc2NCCC)c1 [Compound 3-9] | 10 to 100 nM | < 10 nM | 10 to 100 nM | – | – | –
20 | CCCNc1nc(Nc2cnc3[nH]nc(C)c3c2)ncc1C#CCCCNC(=O)[C@@H]1CCCN1C(=O)/C=C/CN(C)C [Compound 22-56, (S,E)-1-(4-(Dimethylamino)-2-butenoyl)-N-(5-(2-((3-methyl-1H-pyrazolo[3,4-b]pyridin-5-yl)amino)-4-(propylamino)pyrimidin-5-yl)-4-pentyn-1-yl)pyrrolidine-2-carboxamide] | – | – | – | < 10 nM | < 10 nM | < 10 nM
21 | CCCNc1nc(Nc2ccc(F)nc2)ncc1C#CCCCNC(=O)[C@H](C)N(C)C(=O)/C=C/CN(C)C [Compound 7-21, (S,E)-4-(Dimethylamino)-N-(1-((5-(2-((6-fluoropyridin-3-yl)amino)-4-(propylamino)pyrimidin-5-yl)-4-pentyn-1-yl)amino)-1-oxopropan-2-yl)-N-methyl-2-butenamide] | < 10 nM | < 10 nM | < 10 nM | – | – | –
22 | CNc1nc(Nc2cccc(F)c2)ncc1C#C[C@H]1C[C@@H](NC(=O)[C@H](C)N(C)C(=O)/C=C/CN(C)C)C1 [Compound 13-13, (E)-4-(Dimethylamino)-N—((S)-1-(((1S,3R)-3-((2-((3-fluorophenyl)amino)-4-(methylamino)pyrimidin-5-yl)ethynyl)cyclobutyl)amino)-1-oxopropan-2-yl)-N-methyl-2-butenamide] | < 10 nM | < 10 nM | < 10 nM | – | – | –
23 | CCCNc1nc(Nc2cccc3c2cnn3C)ncc1C#CCCCNC(=O)[C@H](C)N(C)C(=O)/C=C/CN(C)C [Compound 21-5] | 100 to 1000 nM | 100 to 1000 nM | > 1000 nM | – | – | –
24 | CCCNc1nc(Nc2cccc(F)c2)ncc1C#CCCCNC(=O)[C@@H]1C[C@@H](O)CN1C(=O)/C=C/CN(C)C [Compound 7-66, (2S,4R)-1-((E)-4-(Dimethylamino)-2-butenoyl)-N-(5-(2-((3-fluorophenyl)amino)-4-(propylamino)pyrimidin-5-yl)-4-pentyn-1-yl)-4-hydroxypyrrolidine-2-carboxamide] | < 10 nM | < 10 nM | < 10 nM | – | – | –
25 | CNc1nc(Nc2ccc(F)cc2)ncc1C#C[C@@H]1CCC[C@H](NC(=O)[C@H](C)N(C)C(=O)/C=C/CN(C)C)C1 [Compound 21-41] | – | – | – | < 10 nM | < 10 nM | < 10 nM
26 | CCCNc1nc(Nc2ccc(C#N)cc2)ncc1C#CCCCNC(=O)CN(Cc1ccccc1)C(=O)/C=C/CN(C)C [Compound 7-43] | < 10 nM | < 10 nM | < 10 nM | – | – | –
27 | C[C@@H](C(=O)NCCC(C)(C)C#Cc1cnc(Nc2ccnc(F)c2)nc1NC1CC1)N(C)C(=O)/C=C/CN(C)C [Compound 9-20] | < 10 nM | < 10 nM | < 10 nM | – | – | –
28 | C[C@@H](C(=O)NCCCC#Cc1cnc(Nc2cccc(F)c2)nc1N1CCOCC1)N(C)C(=O)/C=C/CN(C)C [Compound 10-5, (S,E)-4-(Dimethylamino)-N-(1-((5-(2-((3-fluorophenyl)amino)-4-morpholinopyrimidin-5-yl)-4-pentyn-1-yl)amino)-1-oxopropan-2-yl)-N-methyl-2-butenamide] | < 10 nM | < 10 nM | < 10 nM | – | – | –
29 | CCCNc1nc(Nc2ccc(C(N)=O)cc2)ncc1C(=O)Nc1cccc(NC(=O)[C@H](C)N(C)C(=O)/C=C/CN2CC(O)C2)c1 [Compound 4-5] | < 10 nM | < 10 nM | < 10 nM | – | – | –

Reference: patent publication US9145415B2, “Nitrogen-containing heterocyclic compound or salt thereof” (FUJIFILM Corporation, priority 2012, dated 2015)
